According to patent EP1978972B1, “USE OF ALKYLGLUCOSIDE ESTERS AS BETA-DEFENSIN INDUCERS” (Pierre Fabre Dermo-Cosmétique, priority 2006, dated 2007):

Tested on: hBD-3
Experiment: Immunohistochemistry of hBD-3 peptide in reconstructed gingival epithelium
Format: cell-based, human
Settings: vs untreated sample, qualitative
Description: Les échantillons inclus dans la résine Tissue Tek® sont coupés à froid (température de la chambre à -25°C et la température du porte-objet à - 28°C) à l'aide d'un cryostat (Leica CM 3050s, Nussloch). Les cryocoupes d'une épaisseur de 5 µm sont récupérées sur des lames porte-objet prétraitées, puis mises à sécher environ 2 h à température ambiante et stockées à -20°C pour une utilisation ultérieure. Avant de réaliser l'immuno-marquage, les coupes sont fixées à l'acétone à -20°C pendant 10 min, séchées et conservées à -20°C. Lors d'une première étape, les coupes sont hydratées puis incubées avec les anticorps primaires dirigés contre les peptides d'intérêt dilués dans du PBS. Les anticorps primaires utilisés sont les suivants : • Goat Anti-human BD-2 (500-P161G, Peprotech Inc) dilué au 1/50^e • Rabbit Anti-human defensin-3 (AB3478, Chemicon international) dilué au 1/1000^e • Rabbit Anti-human LL37 (G-075-06, Phoenix Pharmaceuticals Inc) dilué au 1/50^e
Pour révéler le complexe Antigène-Anticorps, le kit DAKO LSAB® (DAKO Corporation) est utilisé selon les recommandations du fournisseur. La révélation est réalisée à l'aide d'un substrat de la péroxydase : la 3,3'diaminobenzidine (DAB) (DAKO Corporation). […]

Substance: laurate de butylglucoside [αβ-LBG brut]
- production du peptide hBD-3 par les cellules de l'épithélium gingival reconstruit: confirmer la production du peptide hBD-3
